Values quoted from earlier work, collected in patent US20100022769A1, “NOVEL POLYNITROGENATED SYSTEMS AS ANTI-HIV AGENTS” (priority 2006, published 2010).

Legend:
[1] = tested on: CCR5-dependent replication of HIV; settings: virus recovered from patients who received AMD3100
[2] = related to its high positive charge in physiological medium
X4 strain of HIV = settings: subject infected with a X4 strain of HIV
[3] = development abandoned in 2001
CXCR4 = CXCR4 (Homo sapiens, UniProt P61073); settings: times more active than AMD3100
Chain of CXCR4 (P61073 whole entry): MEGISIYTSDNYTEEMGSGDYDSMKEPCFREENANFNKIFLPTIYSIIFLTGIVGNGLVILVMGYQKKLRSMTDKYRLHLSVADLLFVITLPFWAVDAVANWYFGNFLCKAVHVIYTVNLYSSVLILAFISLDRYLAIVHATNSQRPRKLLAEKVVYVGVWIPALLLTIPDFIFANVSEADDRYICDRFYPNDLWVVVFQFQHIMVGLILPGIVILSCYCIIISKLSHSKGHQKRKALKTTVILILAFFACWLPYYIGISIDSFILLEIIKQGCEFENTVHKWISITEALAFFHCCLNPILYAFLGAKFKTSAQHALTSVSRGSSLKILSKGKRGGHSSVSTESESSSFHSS

| Compound | inhibiting the in vivo CCR5-dependent replication of HIV [1] | oral bioavailability [2] | reduction of the viral load (X4 strain of HIV) | cardiac toxicity [3] | activity relative to AMD3100 (CXCR4) |
| --- | --- | --- | --- | --- | --- |
| c1cc(CN2CCCNCCNCCCNCC2)ccc1CN1CCCNCCNCCCNCC1 [AMD3100] | not effective | lack of oral bioavailability | 0.8-0.9 log 10 | possible cardiac toxicity | – |
| c1ccc(CNCc2ccc(CN3CCCNCCNCCCNCC3)cc2)nc1 [AMD3465] | – | – | – | – | up to 10 times |
